The series relates to CCRIS mutagenicity, Ames/micronucleus/aberration tests. As to the kind of experiment: CCRIS mutagenicity studies.
Setting [1] is: Test System: AMES SALMONELLA TYPHIMURIUM, Strain/Indicator: TA98, Metabolic Activation: NONE, Method: PREINCUBATION
[2] abbreviates: Test System: AMES SALMONELLA TYPHIMURIUM, Strain/Indicator: TA98, Metabolic Activation: RAT, LIVER, S-9, AROCLOR 1254, Method: PREINCUBATION
[3] abbreviates: Test System: AMES SALMONELLA TYPHIMURIUM, Strain/Indicator: TA100, Metabolic Activation: NONE, Method: PREINCUBATION
[4] abbreviates: Test System: AMES SALMONELLA TYPHIMURIUM, Strain/Indicator: TA100, Metabolic Activation: RAT, LIVER, S-9, AROCLOR 1254, Method: PREINCUBATION
The mark [5] stands for this setting: Test System: AMES SALMONELLA TYPHIMURIUM, Strain/Indicator: TA1535, Metabolic Activation: NONE, Method: PREINCUBATION
[6] abbreviates: Test System: AMES SALMONELLA TYPHIMURIUM, Strain/Indicator: TA1535, Metabolic Activation: RAT, LIVER, S-9, AROCLOR 1254, Method: PREINCUBATION
[7] abbreviates: Test System: AMES SALMONELLA TYPHIMURIUM, Strain/Indicator: TA1537, Metabolic Activation: NONE, Method: PREINCUBATION
The mark [8] stands for this setting: Test System: AMES SALMONELLA TYPHIMURIUM, Strain/Indicator: TA98, Metabolic Activation: NONE, Method: STANDARD PLATE.
[9] abbreviates: Test System: AMES SALMONELLA TYPHIMURIUM, Strain/Indicator: TA100, Metabolic Activation: NONE, Method: STANDARD PLATE.

From PubChem BioAssay AID1259407 (Chemical Carcinogenesis Research Information System (CCRIS), 2018) come the findings set out here.

Structures are written as SMILES. Active and inactive are the calls of the source. How the calls were made is not given here. Where a SMILES comes first, the peptide text is derived from it. [ ]: non-standard residue; d: D form. ξ: configuration not given here. Trp(1-OMe) = COn1cc(C[C@H](N)C(=O)O)c2ccccc21; Asu = N[C@@H](CCCCCC(=O)O)C(=O)O; Ile(3ξ) = CCC(C)[C@H](N)C(=O)O; dPip = O=C(O)[C@H]1CCCCN1

In the case of `CCC(C)[C@@H]1NC(=O)[C@H](Cc2cn(OC)c3ccccc23)NC(=O)[C@H](CCCCCC(=O)OC)NC(=O)[C@H]2CCCCN2C1=O` (stereo partly specified) (cyclo([Asu](OMe)[Trp(1-OMe)][Ile(3ξ)][dPip])), the mutagenic call by setting is: (End Point: IN VITRO CHROMOSOMAL ABERRATIONS, Test System: CHO CELLS, Metabolic Activation: NONE) “active; positive (structural changes)”; (End Point: IN VITRO CHROMOSOMAL ABERRATIONS, Test System: CHO CELLS, Metabolic Activation: RAT, LIVER, S-9, AROCLOR 1254) “active; positive (structural changes)”; (End Point: IN VIVO MICRONUCLEUS, Test System: BONE MARROW POLYCHROMATIC ERYTHROCYTES, Species: MOUSE, Strain/Sex: ICR/MALE, Route: IP INJECTION) “active; positive”; under setting [1], “inactive; negative”; under setting [2], “inactive; negative”; under setting [3], “inactive; negative”. Besides, the mutagenic call is “inactive; negative” under setting [4]; “inactive; negative” (Test System: AMES SALMONELLA TYPHIMURIUM, Strain/Indicator: TA102, Metabolic Activation: NONE, Method: PREINCUBATION); “inactive; negative” (Test System: AMES SALMONELLA TYPHIMURIUM, Strain/Indicator: TA102, Metabolic Activation: RAT, LIVER, S-9, AROCLOR 1254, Method: PREINCUBATION); “inactive; negative” under setting [5]; “inactive; negative” under setting [6]; “inactive; negative” under setting [7]. Also, for the setting “Test System: AMES SALMONELLA TYPHIMURIUM, Strain/Indicator: TA1537, Metabolic Activation: RAT, LIVER, S-9, AROCLOR 1254, Method: PREINCUBATION”, the mutagenic call was “inactive; negative”.

For the compound `N#Cc1c(Cl)cccc1Cl`, the mutagenic call (Test System: AMES SALMONELLA TYPHIMURIUM, Strain/Indicator: TA97, Metabolic Activation: NONE, Method: STANDARD PLATE) is “inactive; negative”; the mutagenic call (Test System: AMES SALMONELLA TYPHIMURIUM, Strain/Indicator: TA97, Metabolic Activation: RAT, LIVER, S-9, AROCLOR 1254, Method: STANDARD PLATE) is “inactive; negative”; the mutagenic call under setting [8] is “inactive; negative”; the mutagenic call (Test System: AMES SALMONELLA TYPHIMURIUM, Strain/Indicator: TA98, Metabolic Activation: RAT, LIVER, S-9, AROCLOR 1254, Method: STANDARD PLATE) was “inactive; negative”; the mutagenic call under setting [9] was “inactive; negative”; the mutagenic call (Test System: AMES SALMONELLA TYPHIMURIUM, Strain/Indicator: TA100, Metabolic Activation: RAT, LIVER, S-9, AROCLOR 1254, Method: STANDARD PLATE) is “inactive; negative”. In addition, the mutagenic call runs as follows: (Test System: AMES SALMONELLA TYPHIMURIUM, Strain/Indicator: TA102, Metabolic Activation: NONE, Method: STANDARD PLATE) “inactive; negative”; (Test System: AMES SALMONELLA TYPHIMURIUM, Strain/Indicator: TA102, Metabolic Activation: RAT, LIVER, S-9, AROCLOR 1254, Method: STANDARD PLATE) “inactive; negative”.

Turning to `[Cu+2].[O-]c1cccc2cccnc12.[O-]c1cccc2cccnc12`, the mutagenic call under setting [8] is “inactive; negative”; the mutagenic call (Test System: AMES SALMONELLA TYPHIMURIUM, Strain/Indicator: TA98, Metabolic Activation: RAT LIVER S-9, AROCLOR 1254, Method: STANDARD PLATE) is “inactive; negative”; the mutagenic call under setting [9] was “inactive; negative”; the mutagenic call (Test System: AMES SALMONELLA TYPHIMURIUM, Strain/Indicator: TA100, Metabolic Activation: RAT LIVER S-9, AROCLOR 1254, Method: STANDARD PLATE) was “active; positive”.

On to `Cc1occc(=O)c1[O-].Cc1occc(=O)c1[O-].Cc1occc(=O)c1[O-].[Al+3]`, for which the mutagenic call runs as follows: (Test System: AMES SALMONELLA TYPHIMURIUM, Strain/Indicator: TA92, Metabolic Activation: NONE, Method: STANDARD PLATE) “inactive; negative”; under setting [8], “inactive; negative”; under setting [9], “inactive; negative”; (Test System: AMES SALMONELLA TYPHIMURIUM, Strain/Indicator: TA104, Metabolic Activation: NONE, Method: STANDARD PLATE) “inactive; negative”.

For `CCc1ccccc1`, the mutagenic call runs as follows: (Test System: AMES SALMONELLA TYPHIMURIUM, Strain/Indicator: TA97, Metabolic Activation: HAMSTER, LIVER, S-9, AROCLOR 1254, Method: PREINCUBATION) “inactive; negative”; (Test System: AMES SALMONELLA TYPHIMURIUM, Strain/Indicator: TA97, Metabolic Activation: NONE, Method: PREINCUBATION) “inactive; negative”; (Test System: AMES SALMONELLA TYPHIMURIUM, Strain/Indicator: TA97, Metabolic Activation: RAT, LIVER, S-9, AROCLOR 1254, Method: PREINCUBATION) “inactive; negative”; (Test System: AMES SALMONELLA TYPHIMURIUM, Strain/Indicator: TA98, Metabolic Activation: HAMSTER LIVER S-9, AROCLOR 1254 (10 OR 30%), Method: PREINCUBATION) “inactive; negative”; (Test System: AMES SALMONELLA TYPHIMURIUM, Strain/Indicator: TA98, Metabolic Activation: HAMSTER, LIVER, S-9, AROCLOR 1254, Method: PREINCUBATION) “inactive; negative”; under setting [1], “inactive; negative”. Moreover, the mutagenic call (Test System: AMES SALMONELLA TYPHIMURIUM, Strain/Indicator: TA98, Metabolic Activation: RAT LIVER S-9, AROCLOR 1254 (10 OR 30%), Method: PREINCUBATION) is “inactive; negative”; the mutagenic call under setting [2] was “inactive; negative”; the mutagenic call (Test System: AMES SALMONELLA TYPHIMURIUM, Strain/Indicator: TA100, Metabolic Activation: HAMSTER LIVER S-9, AROCLOR 1254 (10 OR 30%), Method: PREINCUBATION) was “inactive; negative”; the mutagenic call (Test System: AMES SALMONELLA TYPHIMURIUM, Strain/Indicator: TA100, Metabolic Activation: HAMSTER, LIVER, S-9, AROCLOR 1254, Method: PREINCUBATION) was “inactive; negative”; the mutagenic call under setting [3] is “inactive; negative”; the mutagenic call (Test System: AMES SALMONELLA TYPHIMURIUM, Strain/Indicator: TA100, Metabolic Activation: RAT LIVER S-9, AROCLOR 1254 (10 OR 30%), Method: PREINCUBATION) is “inactive; negative”. For the same compound, the mutagenic call was “inactive; negative” under setting [4]; “inactive; negative” (Test System: AMES SALMONELLA TYPHIMURIUM, Strain/Indicator: TA1535, Metabolic Activation: HAMSTER LIVER S-9, AROCLOR 1254 (10 OR 30%), Method: PREINCUBATION); “inactive; negative” (Test System: AMES SALMONELLA TYPHIMURIUM, Strain/Indicator: TA1535, Metabolic Activation: HAMSTER, LIVER, S-9, AROCLOR 1254, Method: PREINCUBATION); “inactive; negative” under setting [5]; “inactive; negative” (Test System: AMES SALMONELLA TYPHIMURIUM, Strain/Indicator: TA1535, Metabolic Activation: RAT LIVER S-9, AROCLOR 1254 (10 OR 30%), Method: PREINCUBATION); “inactive; negative” under setting [6]. The mutagenic call is “inactive; negative” (Test System: AMES SALMONELLA TYPHIMURIUM, Strain/Indicator: TA1537, Metabolic Activation: HAMSTER LIVER S-9, AROCLOR 1254 (10 OR 30%), Method: PREINCUBATION); “inactive; negative” under setting [7]; “inactive; negative” (Test System: AMES SALMONELLA TYPHIMURIUM, Strain/Indicator: TA1537, Metabolic Activation: RAT LIVER S-9, AROCLOR 1254 (10 OR 30%), Method: PREINCUBATION); “active; positive” (Test System: MOUSE LYMPHOMA, Strain/Indicator: L5178Y (TK+/TK-), Metabolic Activation: NONE, Method: SUSPENSION/PLATE).
